Patent publication US12338220B2, “Antiviral pyrazolopiridinone compounds” (Novartis AG, priority 2019, dated 2025)
Read-outs that look alike come from different tables or passages of the source.

Experiments:
CMV-polymerase = CMV-polymerase (Human cytomegalovirus (strain AD169) (HHV-5) (Human herpesvirus 5), UniProt P08546); test: biochemical
CMV = test: microbe, parasite or virus in culture; type: cell-based; conditions: Human betaherpesvirus 5, 72 h, read-out: CMV-Luc Cellular EC50, NN-NHDF cells, MOI 1, 72 hrs
[1] = read-out: CMV-polymerase Biochemical IC50
[2] = CMV-polymerase Biochemical IC50

C[C@H](NC(=O)c1nn(C)c2c1CCN(CC1(S(=O)(=O)C3CC3)CC1)C2=O)c1ccc(C#N)cc1 [Example 16, (S)-N-(1-(4-Cyanophenyl)ethyl)-6-((1-(cyclopropylsulfonyl)cyclopropyl)methyl)-1-methyl-7-oxo-4,5,6,7-tetrahydro-1H-pyrazolo[3,4-c]pyridine-3-carboxamide]
IC50 (CMV-polymerase; [1]): 13 nM
EC50 (CMV): 170 nM

Cn1nc(C(=O)NCc2ccc(Cl)cc2)c2c1C(=O)N(CC1(S(=O)(=O)NCC(C)(C)O)CC1)CC2 [Example 152, N-(4-Chlorobenzyl)-6-((1-(N-(2-hydroxy-2-methylpropyl)sulfamoyl)cyclopropyl)methyl)-1-methyl-7-oxo-4,5,6,7-tetrahydro-1H-pyrazolo[3,4-c]pyridine-3-carboxamide]
IC50 (CMV-polymerase; [1]): 30 nM
EC50 (CMV): 834 nM

Cn1nc(C(=O)NCc2ccc(C#N)cc2)c2c1C(=O)N(CC1(S(=O)(=O)C3(CN)COC3)CC1)CC2 [Example 174, 6-((1-((3-(aminomethyl)oxetan-3-yl)sulfonyl)cyclopropyl)methyl)-N-(4-cyanobenzyl)-1-methyl-7-oxo-4,5,6,7-tetrahydro-1H-pyrazolo[3,4-c]pyridine-3-carboxamide]
IC50 (CMV-polymerase; [2]): 6 nM
EC50 (CMV): 212 nM

Cn1nc(C(=O)NCc2ccc(C#N)cc2)c2c1C(=O)N(CC1(S(=O)(=O)N3CCC(N)CC3)CC1)CC2 [Example 138, 6-((1-((4-Aminopiperidin-1-yl)sulfonyl)cyclopropyl)methyl)-N-(4-cyanobenzyl)-1-methyl-7-oxo-4,5,6,7-tetrahydro-1H-pyrazolo[3,4-c]pyridine-3-carboxamide]
IC50 (CMV-polymerase; [1]): 21 nM
EC50 (CMV): 127 nM

Cn1nc(C(=O)NCc2ccc(C#N)cc2)c2c1C(=O)N(CC1(S(=O)(=O)C3(C(O)CN)CC3)CC1)CC2 (stereo not drawn) [Example 208, 6-((1-((1-(2-Amino-1-hydroxyethyl)cyclopropyl)sulfonyl)cyclopropyl)methyl)-N-(4-cyanobenzyl)-1-methyl-7-oxo-4,5,6,7-tetrahydro-1H-pyrazolo[3,4-c]pyridine-3-carboxamide]
IC50 (CMV-polymerase; [1]): 1 nM
EC50 (CMV): 51 nM

Cn1nc(-c2nnc(Cc3ccc(C#N)cc3)o2)c2c1C(=O)N(CC1(S(=O)(=O)C3CC3)CC1)CC2 [Example 26, 4-((5-(6-((1-(Cyclopropylsulfonyl)cyclopropyl)methyl)-1-methyl-7-oxo-4,5,6,7-tetrahydro-1H-pyrazolo[3,4-c]pyridin-3-yl)-1,3,4-oxadiazol-2-yl)methyl)benzonitrile]
IC50 (CMV-polymerase; [2]): 52 nM
EC50 (CMV): 761 nM

CN(C)/C=N/S(=O)(=O)C1(CN2CCc3c(C(=O)NCc4ccc(Cl)cc4)nn(C)c3C2=O)CC1 [Example 122, (E)-N-(4-chlorobenzyl)-6-((1-(N-((dimethylamino)methylene)sulfamoyl)cyclopropyl)methyl)-1-methyl-7-oxo-4,5,6,7-tetrahydro-1H-pyrazolo[3,4-c]pyridine-3-carboxamide]
IC50 (CMV-polymerase; [1]): 7 nM
EC50 (CMV): 298 nM

CN1CCN(S(=O)(=O)C2(CN3CCc4c(C(=O)NCc5ccc(C#N)cc5)nn(C)c4C3=O)CC2)CC1 [Example 136, N-(4-Cyanobenzyl)-1-methyl-6-((1-((4-methylpiperazin-1-yl)sulfonyl)cyclopropyl)methyl)-7-oxo-4,5,6,7-tetrahydro-1H-pyrazolo[3,4-c]pyridine-3-carboxamide]
IC50 (CMV-polymerase; [1]): 18 nM
EC50 (CMV): 199 nM

COCC(C)(COC)S(=O)(=O)C1(CN2CCc3c(C(=O)NCc4ccc(C#N)cc4)nn(C)c3C2=O)CC1 [Example 179, N-(4-Cyanobenzyl)-6-((1-((1,3-dimethoxy-2-methylpropan-2-yl)sulfonyl)cyclopropyl)methyl)-1-methyl-7-oxo-4,5,6,7-tetrahydro-1H-pyrazolo[3,4-c]pyridine-3-carboxamide]
IC50 (CMV-polymerase; [1]): 2 nM
EC50 (CMV): 49 nM

Cn1nc(C(=O)NCc2ccc(C#N)cc2)c2c1C(=O)N(CC1(S(=O)(=O)NC3COC3)CC1)CC2 [Example 132, N-(4-Cyanobenzyl)-1-methyl-6-((1-(N-(oxetan-3-yl)sulfamoyl)cyclopropyl)methyl)-7-oxo-4,5,6,7-tetrahydro-1H-pyrazolo[3,4-c]pyridine-3-carboxamide]
IC50 (CMV-polymerase; [1]): 20 nM
EC50 (CMV): 289 nM

Cn1nc(C(=O)NCc2ccc(C#N)cc2)c2c1C(=O)N(CC1(S(=O)(=O)C(C)(C)[C@@H](O)CO)CC1)CC2 [Example 192, (S)-N-(4-Cyanobenzyl)-6-((1-((3,4-dihydroxy-2-methylbutan-2-yl)sulfonyl)cyclopropyl)methyl)-1-methyl-7-oxo-4,5,6,7-tetrahydro-1H-pyrazolo[3,4-c]pyridine-3-carboxamide]
IC50 (CMV-polymerase; [1]): 1 nM
EC50 (CMV): 35 nM

C[C@H](N)C(=O)NCC(C)(C)S(=O)(=O)C1(CN2CCc3c(C(=O)NCc4ccc(C#N)cc4)nn(C)c3C2=O)CC1 [Example 76, (S)-6-((1-((1-(2-Aminopropanamido)-2-methylpropan-2-yl)sulfonyl)cyclopropyl)methyl)-N-(4-cyanobenzyl)-1-methyl-7-oxo-4,5,6,7-tetrahydro-1H-pyrazolo[3,4-c]pyridine-3-carboxamide]
IC50 (CMV-polymerase; [1]): 10 nM
EC50 (CMV): 84 nM

CC1(C)CNCCOCCn2nc(C(=O)NCc3ccc(C#N)cc3)c3c2C(=O)N(CC3)CC2(CC2)S1(=O)=O [Example 242, amine macrocycle N-(4-cyanobenzyl)carboxamide]
IC50 (CMV-polymerase; [2]): 6 nM
EC50 (CMV): 101 nM

Cn1nc(C(=O)NCc2ccc(C#N)cc2)c2c1C(=O)N(CC1(S(=O)(=O)N3C[C@H](N)[C@@H](O)C3)CC1)CC2 [Example 140, 6-((1-(((3S,4S)-3-Amino-4-hydroxypyrrolidin-1-yl)sulfonyl)cyclopropyl)methyl)-N-(4-cyanobenzyl)-1-methyl-7-oxo-4,5,6,7-tetrahydro-1H-pyrazolo[3,4-c]pyridine-3-carboxamide]
IC50 (CMV-polymerase; [1]): 11 nM
EC50 (CMV): 418 nM

Cn1nc(C(=O)NCc2ccc(Cl)s2)c2c1C(=O)N(CC1(S(=O)(=O)C3CC3)CC1)CC2 [Example 10, N-((5-Chlorothiophen-2-yl)methyl)-6-((1-(cyclopropylsulfonyl)cyclopropyl)methyl)-1-methyl-7-oxo-4,5,6,7-tetrahydro-1H-pyrazolo[3,4-c]pyridine-3-carboxamide]
IC50 (CMV-polymerase; [1]): 26 nM
EC50 (CMV): 259 nM

Cn1nc(C(=O)NCc2ccc(C#N)cc2)c2c1C(=O)N(CC1(S(=O)(=O)C(C)(C)COCC(C)(C)N)CC1)CC2 [Example 103, 6-((1-((1-(2-Amino-2-methylpropoxy)-2-methylpropan-2-yl)sulfonyl)cyclopropyl)methyl)-N-(4-cyanobenzyl)-1-methyl-7-oxo-4,5,6,7-tetrahydro-1H-pyrazolo[3,4-c]pyridine-3-carboxamide]
IC50 (CMV-polymerase; [2]): 9 nM
EC50 (CMV): 41 nM

Cn1nc(C(=O)NCc2ccc(Cl)cc2)c2c1C(=O)N(CC1(S(C)(=O)=O)CC1)CC2 [Example 22, N-(4-Chlorobenzyl)-1-methyl-6-((1-(methylsulfonyl)cyclopropyl)methyl)-7-oxo-4,5,6,7-tetrahydro-1H-pyrazolo[3,4-c]pyridine-3-carboxamide]
IC50 (CMV-polymerase; [1]): 12 nM
EC50 (CMV): 113 nM

CN(C)CCOCC(C)(C)S(=O)(=O)C1(CN2CCc3c(C(=O)NCc4ccc(C#N)cc4)nn(C)c3C2=O)CC1 [Example 104, N-(4-Cyanobenzyl)-6-((1-((1-(2-(dimethylamino)ethoxy)-2-methylpropan-2-yl)sulfonyl)cyclopropyl)methyl)-1-methyl-7-oxo-4,5,6,7-tetrahydro-1H-pyrazolo[3,4-c]pyridine-3-carboxamide]
IC50 (CMV-polymerase; [1]): 3 nM
EC50 (CMV): 21 nM

Cn1nc(C(=O)NCc2ccc(C#N)cc2)c2c1C(=O)N(CC1(S(=O)(=O)[C@H]3C[C@H](O)C3)CC1)CC2 [Example 120, N-(4-Cyanobenzyl)-6-((1-(((1r,3r)-3-hydroxycyclobutyl)sulfonyl)cyclopropyl)methyl)-1-methyl-7-oxo-4,5,6,7-tetrahydro-1H-pyrazolo[3,4-c]pyridine-3-carboxamide]
IC50 (CMV-polymerase; [2]): 3 nM
EC50 (CMV): 151 nM

Cn1nc(C(=O)NCc2ccc(Cl)cc2)c2c1C(=O)N(CC1(S(=O)(=O)NC(C)(CO)CO)CC1)CC2 [Example 153, N-(4-Chlorobenzyl)-6-((1-(N-(1,3-dihydroxy-2-methylpropan-2-yl)sulfamoyl)cyclopropyl)methyl)-1-methyl-7-oxo-4,5,6,7-tetrahydro-1H-pyrazolo[3,4-c]pyridine-3-carboxamide]
IC50 (CMV-polymerase; [1]): 20 nM
EC50 (CMV): 305 nM

Cn1nc(C(=O)NCc2ccc(F)cc2)c2c1C(=O)N(CC1(S(=O)(=O)C(C)(C)CO)CC1)CC2 [Example 53, N-(4-Fluorobenzyl)-6-((1-((1-hydroxy-2-methylpropan-2-yl)sulfonyl)cyclopropyl)methyl)-1-methyl-7-oxo-4,5,6,7-tetrahydro-1H-pyrazolo[3,4-c]pyridine-3-carboxamide]
IC50 (CMV-polymerase; [1]): 7 nM
EC50 (CMV): 141 nM

COc1cccc(NS(=O)(=O)C2(CN3CCc4c(C(=O)NCc5ccc(C#N)cc5)nn(C)c4C3=O)CC2)n1 [Example 163, N-(4-Cyanobenzyl)-6-((1-(N-(6-methoxypyridin-2-yl)sulfamoyl)cyclopropyl)methyl)-1-methyl-7-oxo-4,5,6,7-tetrahydro-1H-pyrazolo[3,4-c]pyridine-3-carboxamide]
IC50 (CMV-polymerase; [1]): 2 nM
EC50 (CMV): 67 nM

Cn1nc(C(=O)NCc2ccc(Cl)cc2)c2c1C(=O)N(CC1(S(=O)(=O)C(C)(C)[C@@H](O)CO)CC1)CC2 [Example 190, (S)—N-(4-Chlorobenzyl)-6-((1-((3,4-dihydroxy-2-methylbutan-2-yl)sulfonyl)cyclopropyl)methyl)-1-methyl-7-oxo-4,5,6,7-tetrahydro-1H-pyrazolo[3,4-c]pyridine-3-carboxamide]
IC50 (CMV-polymerase; [1]): 1 nM
EC50 (CMV): 19 nM

CC(C)(CO)S(=O)(=O)C1(CN2CCc3c(C(=O)NCc4ccc(C#N)cc4)n[nH]c3C2=O)CC1 [Example 49, N-(4-Cyanobenzyl)-6-((1-((1-hydroxy-2-methylpropan-2-yl)sulfonyl)cyclopropyl)methyl)-7-oxo-4,5,6,7-tetrahydro-1H-pyrazolo[3,4-c]pyridine-3-carboxamide]
IC50 (CMV-polymerase; [2]): 4 nM
EC50 (CMV): 58 nM
